Test results: patent publication EP0908457B1, “3-(1,2-benzisothiazol- and isoxazol-5-Y1)-2,4(1H,3H)-pyrimidinedione or thione and 3-(1,2-benzisothiazol- and isoxazol-5-y1)-4(3H)-pyrimidinone or thione herbicidal agents” (BASF AKTIENGESELLSCHAFT, priority 1997, dated 1999)

Tests used:
[1] = test system: Monochoria vaginalis, Presl.; assay: Preemergence weed control under flooded paddy conditions, MOOVA (Monochoria); assay type: in vivo; conditions: preemergence weeds, flooded paddy, herbicidal effect rating 0-9, three to four weeks after treatment
[2] = test system: Cyperus serotinus, Rottb.; assay: Preemergence weed control under flooded paddy conditions, CYPSE (Flatsedge); assay type: in vivo; conditions: preemergence weeds, herbicidal effect rating 0-9, three to four weeks after treatment
[3] = test system: Cyperus iria; assay: Preemergence weed control under flooded paddy conditions, CYPIR (Rice Flatsedge); assay type: in vivo; conditions: preemergence weeds, flooded paddy, herbicidal effect rating 0-9, three to four weeks after treatment
[4] = test system: Sagittaria pygmaea, L.; assay: Preemergence weed control under flooded paddy conditions, SAGPY (Arrowhead (Pygmaea)); assay type: in vivo; conditions: preemergence weeds, flooded paddy, herbicidal effect rating 0-9, three to four weeks after treatment
[5] = test system: Echinochloa oryzoides (Ard.) Fritsch.; assay: Postemergence weed control under flooded paddy conditions, ECHORC (Watergrass (Calif.)); assay type: in vivo; conditions: rated three to four weeks after treatment
[6] = test system: Oryza sativa, (L.) Tebonnet; assay: Rice tolerance to post-transplant applications under flooded paddy conditions (Example 187), ORYSAT (Rice, Tebonnet); conditions: herbicidal effect rating 0-9, three to four weeks after treatment
[7] = test system: Monochoria vaginalis, Presl.; assay: Postemergence weed control under flooded paddy conditions, MOOVA (Monochoria); assay type: in vivo; conditions: rated three to four weeks after treatment
[8] = test system: Cyperus iria; assay: Postemergence weed control under flooded paddy conditions, CYPIR (Rice Flatsedge); assay type: in vivo; conditions: rated three to four weeks after treatment
[9] = test system: Cyperus serotinus, Rottb.; assay: Postemergence weed control under flooded paddy conditions, CYPSE (Flatsedge); assay type: in vivo; conditions: rated three to four weeks after treatment
[10] = test system: Oryza sativa, (L.) Tebonnet; assay: Rice tolerance to post-transplant applications under flooded paddy conditions (Example 188), ORYSAT (Rice, Tebonnet); conditions: rated three to four weeks after treatment
[11] = test system: Sagittaria pygmaea, L.; assay: Postemergence weed control under flooded paddy conditions, SAGPY (Arrowhead (Pygmaea)); assay type: in vivo; conditions: rated three to four weeks after treatment
[12] = test system: Echinochloa oryzoides (Ard.) Fritsch.; assay: Preemergence weed control under flooded paddy conditions, ECHORC (Watergrass (Calif.)); assay type: in vivo; conditions: preemergence weeds, flooded paddy, herbicidal effect rating 0-9, three to four weeks after treatment

COc1cc(C)c(I)cc1-c1nsc2ccc(-n3c(=O)cc(C(F)(F)F)n(C)c3=O)cc12 [Example 429, 2,4(1H,3H)-Pyrimidinedione, 3-[3-(5-iodo-2-methoxy-p-tolyl)-1,2-benzisothiazol-5-yl]-1-methyl-6-(trifluoromethyl)-]
MOOVA ([1]; 0.0320 kg/ha): 9.0
MOOVA ([1]; 0.0620 kg/ha): 9.0
MOOVA ([1]; 0.1250 kg/ha): 9.0
MOOVA ([1]; 0.2500 kg/ha): 9.0
CYPSE ([2]; 0.0320 kg/ha): 0.0
CYPSE ([2]; 0.0620 kg/ha): 1.0
CYPSE ([2]; 0.1250 kg/ha): 1.0
CYPSE ([2]; 0.2500 kg/ha): 1.0
CYPIR ([3]; 0.0320 kg/ha): 7.3
CYPIR ([3]; 0.0620 kg/ha): 7.7
CYPIR ([3]; 0.1250 kg/ha): 8.3
CYPIR ([3]; 0.2500 kg/ha): 9.0
SAGPY ([4]; 0.0320 kg/ha): 2.0
SAGPY ([4]; 0.0620 kg/ha): 2.3
SAGPY ([4]; 0.1250 kg/ha): 2.3
SAGPY ([4]; 0.2500 kg/ha): 3.0
herbicidal effect rating, ECHORC ([5]; Rate 0.0320 kg/ha): 4.0
herbicidal effect rating, ECHORC ([5]; Rate 0.0620 kg/ha): 6.0
herbicidal effect rating, ECHORC ([5]; Rate 0.1250 kg/ha): 6.0
herbicidal effect rating, ECHORC ([5]; Rate 0.2500 kg/ha): 9.0
ORYSAT ([6]; 0.0320 kg/ha): 1.3
ORYSAT ([6]; 0.0620 kg/ha): 2.0
ORYSAT ([6]; 0.1250 kg/ha): 2.3
ORYSAT ([6]; 0.2500 kg/ha): 3.0
herbicidal effect rating, MOOVA ([7]; Rate 0.0320 kg/ha): 2.0
herbicidal effect rating, MOOVA ([7]; Rate 0.0620 kg/ha): 4.0
herbicidal effect rating, MOOVA ([7]; Rate 0.1250 kg/ha): 7.0
herbicidal effect rating, MOOVA ([7]; Rate 0.2500 kg/ha): 7.0
herbicidal effect rating, CYPIR ([8]; Rate 0.0320 kg/ha): 4.0
herbicidal effect rating, CYPIR ([8]; Rate 0.0620 kg/ha): 6.0
herbicidal effect rating, CYPIR ([8]; Rate 0.1250 kg/ha): 7.0
herbicidal effect rating, CYPIR ([8]; Rate 0.2500 kg/ha): 9.0
herbicidal effect rating, CYPSE ([9]; Rate 0.0320 kg/ha): 0.0
herbicidal effect rating, CYPSE ([9]; Rate 0.0620 kg/ha): 0.0
herbicidal effect rating, CYPSE ([9]; Rate 0.1250 kg/ha): 0.0
herbicidal effect rating, CYPSE ([9]; Rate 0.2500 kg/ha): 0.0
herbicidal effect rating, ORYSAT (rice tolerance) ([10]; Rate 0.0320 kg/ha): 1.0
herbicidal effect rating, ORYSAT (rice tolerance) ([10]; Rate 0.0620 kg/ha): 1.0
herbicidal effect rating, ORYSAT (rice tolerance) ([10]; Rate 0.1250 kg/ha): 2.0
herbicidal effect rating, ORYSAT (rice tolerance) ([10]; Rate 0.2500 kg/ha): 2.0
herbicidal effect rating, SAGPY ([11]; Rate 0.0320 kg/ha): 0.0
herbicidal effect rating, SAGPY ([11]; Rate 0.0620 kg/ha): 0.0
herbicidal effect rating, SAGPY ([11]; Rate 0.1250 kg/ha): 0.0
herbicidal effect rating, SAGPY ([11]; Rate 0.2500 kg/ha): 0.0
ECHORC ([12]; 0.0320 kg/ha): 9.0
ECHORC ([12]; 0.0620 kg/ha): 9.0
ECHORC ([12]; 0.1250 kg/ha): 9.0
ECHORC ([12]; 0.2500 kg/ha): 9.0
